Bridges are numbered along the chain shown (N, C = ends). Roman numbers before positions name the chains, in order. Where no end group is shown, it is not given here.
Assays:
Aβ1-42 = molecular target: T1, Aβ1-42 (Homo sapiens, UniProt P05067); assay: Aβ1-42 aggregation assay (thioflavin T fluorescence); settings: 8 days, 50 mM Tris pH 7.4, ThT 5 μM, triplicates, slopes compared with Aβ alone
T1 construct: Aβ1-42, at a final concentration of 75 μM (pH 7.4); purchased Bachem AG (Bubendorf, Switzerland) or Schafer-N; host or cells: synthetic peptide
T1 sequence (P05067 672-713): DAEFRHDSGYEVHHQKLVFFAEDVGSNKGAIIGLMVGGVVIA
Procedure: Aβ1-42 was dissolved in sterile deionized water to a final concentration of 1 mM. Then, the peptide was subjected to a basic shock by adding 2 M NaOH to pH 12 followed by neutralization with 1 M HCl. Aβ1-42, at a final concentration of 75 μM (pH 7.4) either alone or in combination with NL1 (1 μM), neurolide (10 μM), or NLp7 (10 μM), was loaded in triplicates on 96-well plate. Immediately after mixing the samples, thioflavin T (5 μM, ThT; Sigma-Aldrich), dissolved in the aggregation buffer (50 mM Tris, pH 7.4), was added to wells and plate was incubated at 37 °C for 8 days. The formation of beta-amyloid aggregates was monitored first for 210 min and then every 24 h by recording changes in ThT fluorescence at excitation/emission (Ex/Em) = 440/482 nm.

[1] = molecular target: T2, recombinant neprilysin (NEP) (Homo sapiens, UniProt P08473); assay: Neprilysin activity assay with recombinant enzyme (SensoLyte 520); type: biochemical; settings: four to five independent experiments; for activity of recombinant NEP: dose-dependent, NL1 0.1, 0.3, 1, 3 μM, neurolide 1, 5, 10, 100 μM, 5-FAM/QXL substrate, Ex/Em 485/535 nm, 2 h
T2 construct: purchased Anaspec, Fremont, California, USA (SensoLyte 520 Neprilysin Activity Assay Kit)
T2 sequence (P08473 whole entry): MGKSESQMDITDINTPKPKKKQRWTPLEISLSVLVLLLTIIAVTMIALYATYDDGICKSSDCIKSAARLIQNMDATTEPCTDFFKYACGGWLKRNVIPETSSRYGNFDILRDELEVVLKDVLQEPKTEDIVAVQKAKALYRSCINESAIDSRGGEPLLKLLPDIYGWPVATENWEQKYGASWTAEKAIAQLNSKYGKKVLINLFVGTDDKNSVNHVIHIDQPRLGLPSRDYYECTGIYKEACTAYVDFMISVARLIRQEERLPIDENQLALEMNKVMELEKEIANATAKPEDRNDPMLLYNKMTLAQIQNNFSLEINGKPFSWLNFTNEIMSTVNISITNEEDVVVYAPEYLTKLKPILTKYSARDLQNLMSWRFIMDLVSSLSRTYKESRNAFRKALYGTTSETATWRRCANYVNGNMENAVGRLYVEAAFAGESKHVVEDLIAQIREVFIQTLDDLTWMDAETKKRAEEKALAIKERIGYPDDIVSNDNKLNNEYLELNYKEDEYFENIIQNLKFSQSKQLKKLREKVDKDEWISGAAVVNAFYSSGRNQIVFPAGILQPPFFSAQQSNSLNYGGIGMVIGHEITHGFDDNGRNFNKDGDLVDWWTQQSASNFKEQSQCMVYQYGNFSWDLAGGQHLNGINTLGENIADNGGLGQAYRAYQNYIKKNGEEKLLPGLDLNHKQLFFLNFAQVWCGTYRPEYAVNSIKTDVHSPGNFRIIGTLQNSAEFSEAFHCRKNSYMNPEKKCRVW
Procedure: NEP activity was measured using the SensoLyte 520 Neprilysin Activity Assay Kit *Fluorimetric* (Anaspec, Fremont, California, USA) following the protocol provided by the manufacturer. Briefly, Aβ1-42 was dissolved in anhydrous DMSO to a stock concentration of 5 mM, followed by dilutions in assay buffer (100 μM, 50 μM, and 5 μM). Both NL1 (3 μM, 1 μM, 0.3 μM, 0.1 μM) and neurolide (100, 10, 5, and 1 μM) were dissolved in assay buffer. Randomly selected two additional NL1-derived peptides, NLp4, and NLp7 (5 μM, Table 1), were included in the analysis. The NEP solution (40 μl) was mixed with 10 μl of either NL1 or peptides and supplemented with 50 μl of NEP substrate (5-FAM/QXL), and the final mixture was incubated in black optical-bottom 96-well plate (Nunc, Rochester, New York, USA). In co-stimulation experiments, Aβ1-42, prepared as described above, was added to the solution in final concentrations either 0.5 μM or 5 μM. The fluorescence signal was recorded at Ex/Em = 485/535 nm every 20 min for 2 h. The data are presented as the relative activity of NEP alone.

[2] = Integrity after prolonged incubation under aggregation assay conditions (immunoblot); type: physicochemical; settings: aggregation buffer 50 mM Tris pH 7.4, 37 °C, 8 days; His-tagged NL1 200 nM, biotinylated neurolide 6.7 μM; SDS-PAGE and Western blot versus fresh samples
Procedure: After 8-day incubation, they were subjected to conventional SDS polyacrylamide gel electrophoresis on a pre-casted gel (Any kD Mini-PROTEAN TGX gel, Bio-Rad) and transferred to a PVDF membranes (Millipore) together with freshly prepared samples of sNL1 and b-neurolide as corresponding positive controls. Subsequently, membranes were blocked in 5% (wt/vol) non-fat dry milk in PBST (PBS containing 0.05% [vol/vol] Tween-20). To detect sNL1, blots were probed overnight with a 6x-His tag monoclonal antibody (1:2000, Thermo Fisher Scientific) at 4 °C, followed by incubation for 1 h at room temperature with an anti-mouse horseradish peroxidase (HRP)-conjugated secondary antibody (1:10,000, Thermo Fisher Scientific). B-neurolide was detected by incubation for 1 h at room temperature with a streptavidin-HRP complex (1:5000, Dako). Chemiluminescent signal on the blot was developed by employing the SuperSignal ELISA Femto Substrate kit (Thermo Fisher Scientific) according to the manufacturer’s instructions, and images were acquired using an AlphaImager system (Alpha Innotech).
Supplementary file 12035_2024_4475_Fig8_ESM.png: Supplementary Fig. 3. […] NL1 (200 nM; R&D Systems) and biotinylated neurolide (6.7 μM; Schafer-N) were dissolved in the aggregation buffer, incubated at 37°C for 8 days, followed by conventional immunoblotting. […]

Row | Molecule | development of ThT fluorescence (Aβ aggregation) (Aβ1-42; 75 μM Aβ1-42 + 10 μM peptide, 37 °C) | activity of recombinant NEP [1] | activity of recombinant NEP in the presence of Aβ1-42 ([1]; neurolide 10 μM with Aβ1-42 at 0.5 μM or 5 μM) | integrity after prolonged incubation [2] | rise of ThT fluorescence (Aβ aggregation) (Aβ1-42; 75 μM Aβ1-42 + 1 μM sNL1, 37 °C, Ex/Em 440/482 nm)
1 | I: SEGNRWSNSTKGLFQRAKK-NH2 / II: SEGNRWSNSTKGLFQRAK / III: SEGNRWSNSTKGLFQRA / IV: SEGNRWSNSTKGLFQRA (amide I:18-IV:C, I:19-II:C, II:18-III:C; C-terminus assumed) [neurolide] | attenuate Aβ peptide aggregation | significantly inhibited | significantly inhibited | remained intact | 
2 | NL1: recombinant rat neuroligin-1, soluble ectodomain (R&D systems) (protein, UniProt Q62765 46-697, looked up, extracellular domain) extracellular domain: QKLDDVDPLVTTNFGKIRGIKKELNNEILGPVIQFLGVPYAAPPTGEHRFQPPEPPSPWSDIRNATQFAPVCPQNIIDGRLPEVMLPVWFTNNLDVVSSYVQDQSEDCLYLNIYVPTEDVKRISKECARKPGKKICRKGDIRDSGGPKPVMVYIHGGSYMEGTGNLYDGSVLASYGNVIVITVNYRLGVLGFLSTGDQAAKGNYGLLDLIQALRWTSENIGFFGGDPLRITVFGSGAGGSCVNLLTLSHYSEGNRWSNSTKGLFQRAIAQSGTALSSWAVSFQPAKYARILATKVGCNVSDTVELVECLQKKPYKELVDQDVQPARYHIAFGPVIDGDVIPDDPQILMEQGEFLNYDIMLGVNQGEGLKFVENIVDSDDGVSASDFDFAVSNFVDNLYGYPEGKDVLRETIKFMYTDWADRHNPETRRKTLLALFTDHQWVAPAVATADLHSNFGSPTYFYAFYHHCQTDQVPAWADAAHGDEVPYVLGIPMIGPTELFPCNFSKNDVMLSAVVMTYWTNFAKTGDPNQPVPQDTKFIHTKPNRFEEVAWTRYSQKDQLYLHIGLKPRVKEHYRANKVNLWLELVPHLHNLNDISQYTSTTTKVPSTDITLRPTRKNSTPVTSAFPTAKQDDPKQQPSPFSVDQRDYSTELS |  | significantly inhibited |  | remained intact | significantly decreased
